Test results: patent publication US11453697B1, “Cyclic di-nucleotide compounds as sting agonists” (Merck Sharp & Dohme Corp., priority 2015, dated 2022)

Tests used:
[1] = test system: IFN-β secretion in THP1 cells; experiment: IFN-β secretion in THP1 cell culture (5 h); format: cell-based, human; conditions: IFN-β secretion in THP1 cell culture, 5 h; compound at 30 μM; percent activation relative to 2′3′-cGAMP
How it was run: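 THP1 cells incubated with compound for 5 h at 37 °C, 5% CO2, and secreted IFN-β in supernatant quantified by AlphaLISA. Percent effect normalised to 30 uM cGAMP positive control and 0.3% DMSO. EC50 from 4-parameter fit.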

full-length HAQ STING = full-length HAQ STING (Homo sapiens (Human), UniProt Q86WV6, G230A/H232R/R293Q/R71H); experiment: 3H-cGAMP filtration binding assay (HAQ STING); conditions: competition with tritiated cGAMP, HAQ STING membrane; read-out: EC50 (nM), 3H-cGAMP filtration binding assay for HAQ STING
full-length HAQ STING, sequence (Q86WV6 other isoform, or with tags, fused parts or gaps, stated change not applied): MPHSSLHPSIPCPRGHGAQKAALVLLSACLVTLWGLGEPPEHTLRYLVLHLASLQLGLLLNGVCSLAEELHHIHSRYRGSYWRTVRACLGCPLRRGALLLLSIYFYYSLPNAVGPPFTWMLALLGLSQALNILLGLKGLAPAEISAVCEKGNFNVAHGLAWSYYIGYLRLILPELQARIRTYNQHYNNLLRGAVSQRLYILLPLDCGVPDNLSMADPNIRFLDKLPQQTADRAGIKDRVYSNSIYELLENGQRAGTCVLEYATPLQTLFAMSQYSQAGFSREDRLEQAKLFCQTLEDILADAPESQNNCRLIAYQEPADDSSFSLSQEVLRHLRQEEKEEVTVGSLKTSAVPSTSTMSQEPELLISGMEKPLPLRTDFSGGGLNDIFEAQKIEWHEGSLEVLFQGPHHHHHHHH
How it was run: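 Competition binding of compounds against 8 nM [3H]cGAMP working stock on Hi-Five cell membranes overexpressing full-length HAQ STING; compound and membrane preincubated 60 min at RT before ligand addition. Bound radioactivity read by filtration and scintillation counting; percent activity normalized to controls, EC50 from 4-parameter fit.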

| Structure (SMILES) | % Effect at 30 μM relative to 2′3′-cGAMP [1] [%] | EC50 (full-length HAQ STING) [nM] |
| --- | --- | --- |
| Nc1ncnc2c1ncn2[C@@H]1O[C@@H]2COP(=O)(O)O[C@@H]3[C@H](O)[C@@H](COP(=O)(O)O[C@H]2[C@H]1O)O[C@H]3n1ncc2c(=O)[nH]cnc21 [Example 66, 1-[(5R,7R,8R,12aR,14R,15R,15aS,16R)-14-(6-amino-9H-purin-9-yl)-2,10,15,16-tetrahydroxy-2,10-dioxidooctahydro-12H-5,8-methanofuro[3,2-l][1,3,6,9,11,2,10]pentaoxadiphosphacyclotetradecin-7-yl]-1,5-dihydro-4H-pyrazolo[3,4-d]pyrimidin-4-one] | 54 | 117 |
| Nc1ncnc2c1ccn2[C@@H]1O[C@@H]2COP(=O)(O)O[C@@H]3C[C@@H](COP(=O)(O)O[C@H]2[C@H]1O)O[C@H]3n1cnc2c(=O)[nH]cnc21 [Example 67, 9-[(5S,7R,8R,12aR,14R,15R,15aS)-14-(4-amino-7H-pyrrolo[2,3-d]pyrimidin-7-yl)-2,10,15-trihydroxy-2,10-dioxidooctahydro-12H-5,8-methanofuro [3,2-l][1,3,6,9,11,2,10]pentaoxadiphosphacyclotetradecin-7-yl]-1,9-dihydro-6H-purin-6-one] | 111 | 6.4 |
| Nc1ncnc2c1ncn2[C@@H]1O[C@@H]2COP(=O)(O)O[C@@H]3[C@H](O)[C@@H](COP(=O)(O)O[C@H]2[C@H]1O)O[C@H]3c1cnc2c(=O)[nH]cnn12 [Example 68, 7-[(5R,7S,8R,12aR,14R,15R,15aS,16R)-14-(6-amino-9H-purin-9-yl)-2,10,15,16-tetrahydroxy-2,10-dioxidooctahydro-12H-5,8-methanofuro [3,2-l][1,3,6,9,11,2,10]pentaoxadiphosphacyclotetradecin-7-yl]imidazo[2,1-f][1,2,4]triazin-4(3H)-one] | 72 | 63.8 |
| Nc1nc2c(ncn2[C@@H]2O[C@@H]3COP(=O)(O)O[C@H]4[C@@H](O)[C@H](n5nnc6c(N)nccc65)O[C@@H]4COP(=O)(O)O[C@@H]2[C@@H]3O)c(=O)[nH]1 [Example 73, 2-amino-9-[(5R,7R,8R,12aR,14R,15R,15aS,16R)-14-(4-amino-1H-[1,2,3]triazolo[4,5-c]pyridin-1-yl)-2,10,15,16-tetrahydroxy-2,10-dioxidooctahydro-12H-5,8-methanofuro[3,2-l][1,3,6,9,11,2,10]pentaoxadiphosphacyclotetradecin-7-yl]-1,9-dihydro-6H-purin-6-one] | 5 | 834 |
| Nc1ncnc2c1ncn2[C@@H]1O[C@@H]2COP(=O)(O)O[C@@H]3[C@H](O)[C@@H](COP(=O)(O)O[C@H]2[C@H]1O)O[C@H]3c1n[nH]c2c(=O)[nH]cnc12 [Example 74, 3-[(5R,7S,8R,12aR,14R,15R,15aS,16R)-14-(6-amino-9H-purin-9-yl)-2,10,15,16-tetrahydroxy-2,10-dioxidooctahydro-12H-5,8-methanofuro[3,2-l][1,3,6,9,11,2,10]pentaoxadiphosphacyclotetradecin-7-yl]-1,6-dihydro-7H-pyrazolo[4,3-d]pyrimidin-7-one] | 57 | 5.8 |
| Nc1nc2c(ncn2[C@@H]2O[C@@H]3COP(=O)(O)O[C@H]4[C@@H](O)[C@H](n5cnc6c(N)ncnc65)O[C@@H]4COP(=O)(O)O[C@@H]2[C@@H]3N)c(=O)[nH]1 [Example 75, 2-Amino-9-[(5S,7R,8R,12aR,14R,15R,15aS,16R)-16-amino-14-(6-amino-9H-purin-9-yl)-2,10,15-trihydroxy-2,10-dioxidooctahydro-12H-5,8-methanofuro[3,2-l][1,3,6,9,11,2,10]pentaoxadiphosphacyclotetradecin-7-yl]-1,9-dihydro-6H-purin-6-one] | 96 | 2.6 |
| NC(=O)c1ncnc2c1ncn2[C@@H]1O[C@@H]2COP(=O)(O)O[C@@H]3[C@H](O)[C@@H](COP(=O)(O)O[C@H]2[C@H]1O)O[C@H]3n1cnc2c(=O)[nH]c(N)nc21 [Example 76, 9-[(5R,7R,8R,12aR,14R,15R,15aS,16R)-7-(2-amino-6-oxo-1,6-dihydro-9H-purin-9-yl)-2,10,15,16-tetrahydroxy-2,10-dioxidooctahydro-12H-5,8-methanofuro[3,2-l][1,3,6,9,11,2,10]pentaoxadiphosphacyclotetradecin-14-yl]-9H-purine-6-carboxamide] | 39 | 75.4 |
| Nc1nc2c(ncn2[C@@H]2O[C@@H]3COP(=O)(S)O[C@H]4[C@H](F)[C@H](n5nnc6c(N)ncnc65)O[C@@H]4COP(=O)(S)O[C@@H]2C3)c(=O)[nH]1 (stereo partly drawn) [Example 138, 2-amino-9-[(5S,7R,8R,12aR,14R,15S,15aR)-14-(7-amino-3H-[1,2,3]triazolo[4,5-d]pyrimidin-3-yl)-15-fluoro-2,10-dioxido-2,10-disulfanyloctahydro-12H-5,8-methanofuro[3,2-l] [1,3,6,9,11,2,10]pentaoxadiphosphacyclotetra-decin-7-yl]-1,9-dihydro-6H-purin-6-one] | 51 | 739 |
| Nc1nc2c(ncn2[C@@H]2O[C@@H]3CO[P@@](=O)(S)O[C@H]4[C@@H](O)[C@H](n5cnc6c(=O)[nH]cnc65)O[C@@H]4CO[P@@](=O)(S)O[C@@H]2C3)c(=O)[nH]1 [Example 290, 2-amino-9-[(2R,5S,7R,8R,10R,12aR,14R,15R,15aS)-15-hydroxy-2,10-dioxido-14-(6-oxo-1,6-dihydro-9H-purin-9-yl)-2,10-disulfanyloctahydro-12H-5,8-methanofuro[3,2-l][1,3,6,9,11,2,10]pentaoxadiphosphacyclotetradecin-7-yl]-1,9-dihydro-6H-purin-6-one] | 90 | 2.5 |
| Nc1ncnc2c1ncn2[C@@H]1O[C@@H]2COP(=O)(O)O[C@H]3C[C@H](n4cnc5c(=O)[nH]cnc54)O[C@@H]3COP(=O)(O)O[C@@H]1[C@@H]2O [Example 291, 9-[(5R,7R,8R,12aR,14R,15aS,16R)-7-(6-amino-9H-purin-9-yl)-2,10,16-trihydroxy-2,10-dioxidooctahydro-12H-5,8-methanofuro[3,2-l][1,3,6,9,11,2,10]pentaoxadiphosphacyclotetradecin-14-yl]-1,9-dihydro-6H-purin-6-one] | 98 | 64.7 |
| Nc1ncnc2c1ncn2[C@@H]1O[C@@H]2COP(=O)(O)O[C@H]3[C@@H](F)[C@H](n4cnc5c(=O)[nH]cnc54)O[C@@H]3COP(=O)(O)O[C@@H]1[C@@H]2O [Example 292, 9-[(5R,7R,8R,12aR,14R,15R,15aR,16R)-7-(6-amino-9H-purin-9-yl)-15-fluoro-2,10,16-trihydroxy-2,10-dioxidooctahydro-12H-5,8-methanofuro[3,2-l][1,3,6,9,11,2,10]pentaoxadiphosphacyclotetradecin-14-yl]-1,9-dihydro-6H-purin-6-one] | 114 | 2.6 |
| Nc1nc2c(ncn2[C@@H]2O[C@@H]3COP(=O)(O)O[C@H]4[C@@H](F)[C@H](n5cnc6c(=O)[nH]cnc65)O[C@@H]4COP(=O)(O)O[C@@H]2[C@@H]3O)c(=O)[nH]1 [Example 293, 2-amino-9-[(5R,7R,8R,12aR,14R,15R,15aR,16R)-15-fluoro-2,10,16-trihydroxy-2,10-dioxido-14-(6-oxo-1,6-dihydro-9H-purin-9-yl)octahydro-12H-5,8-methanofuro[3,2-l] [1,3,6,9,11,2,10]pentaoxadiphosphacyclo-tetradecin-7-yl]-1,9-dihydro-6H-purin-6-one] | 86 | 1.9 |
| Nc1nc2c(ncn2[C@@H]2O[C@@H]3COP(=O)(O)O[C@H]4[C@@H](F)[C@H](n5cnc6c(=O)[nH]cnc65)O[C@@H]4COP(=O)(O)O[C@@H]2C3)c(=O)[nH]1 [Example 294, 2-amino-9-[(5S,7R,8R,12aR,14R,15R,15aR)-15-fluoro-2,10-dihydroxy-2,10-dioxido-14-(6-oxo-1,6-dihydro-9H-purin-9-yl)octahydro-12H-5,8-methanofuro[3,2-l] [1,3,6,9,11,2,10]pentaoxadiphosphacyclo-tetradecin-7-yl]-1,9-dihydro-6H-purin-6-one] | 84 | 6.6 |
| Nc1nc2c(ncn2[C@@H]2O[C@@H]3COP(=O)(O)O[C@H]4[C@H](F)[C@H](n5cnc6c(=O)[nH]cnc65)O[C@@H]4COP(=O)(O)O[C@@H]2[C@@H]3O)c(=O)[nH]1 [Example 295, 2-amino-9-[(5R,7R,8R,12aR,14R,15S,15aR,16R)-15-fluoro-2,10,16-trihydroxy-2,10-dioxido-14-(6-oxo-1,6-dihydro-9H-purin-9-yl)octahydro-12H-5,8-methanofuro[3,2-l] [1,3,6,9,11,2,10]pentaoxadiphosphacyclo-tetradecin-7-yl]-1,9-dihydro-6H-purin-6-one] | 70 | 29.6 |
| Nc1nc2c(ncn2[C@@H]2O[C@@H]3COP(=O)(O)O[C@H]4[C@@H](O)[C@H](n5cnc6c(O)ncnc65)O[C@@H]4COP(=O)(O)O[C@@H]2[C@@H]3F)c(=O)[nH]1 [Example 300, 2-amino-9-[(5R,7R,8S,12aR,14R,15R,15aS,16R)-16-fluoro-2,10,15-trihydroxy-14-(6-hydroxy-9H-purin-9-yl)-2,10-dioxidooctahydro-12H-5,8-methanofuro[3,2-l] [1,3,6,9,11,2,10]pentaoxadiphosphacyclo-tetradecin-7-yl]-1,9-dihydro-6H-purin-6-one] | 86 | 5.1 |
